Experimental data published in ChEMBL document CHEMBL1156790, “Synthesis and structure-activity relationships of antitubercular 2-nitroimidazooxazines bearing heterocyclic side chains” (J Med Chem, 2010).
≈ marks a conversion by molar mass, not a printed value.

Key:
[1] = Solubility in water at pH 7 at 20 degC; type: physicochemical
Vero = assay: Cytotoxicity against african green monkey Vero cells after 72 hrs by tetrazolium dye assay; type: cell-based; settings: Chlorocebus sabaeus
[2] = test system: Mycobacterium tuberculosis; assay: Antimycobacterial activity against Mycobacterium tuberculosis H37Rv after 16 to 24 hrs by microplate alamar blue assay; type: functional
[3] = test system: Mycobacterium tuberculosis; assay: Antimycobacterial activity against Mycobacterium tuberculosis H37Rv expressing pFCA-luxAB after 10 days by luminescence-based low-oxygen recovery assay; type: functional; settings: 240 h
[4] = Metabolic stability in mouse liver microsomes after 1 hr at 37 degC; type: ADME, Microsome; settings: liver microsomes, read-out: Stability
[5] = test system: Mycobacterium tuberculosis; assay: Antitubercular effect in Mycobacterium tuberculosis infected BALB/c mouse assessed as CFU reduction at 100 mg/kg, po administered 5 days a week for 3 weeks relative to PA-824; type: functional
[6] = Metabolic stability in human liver microsomes after 1 hr at 37 degC; type: ADME, Microsome; settings: liver microsomes, read-out: Stability

SMILES	solubility [1] [µg/mL]	IC50 (Vero) [µM]	MIC [2] [µM]	MIC [3] [µM]	remaining at 1 h [4] [%]	fold change (FC) [5]	remaining at 1 h [6] [%]
O=[N+]([O-])c1cn2c(n1)OC[C@@H](OCc1nnc(-c3ccc(F)cc3)o1)C2	108 (≈ 299 µM)	> 128	2.4 (≈ 0.867 µg/mL)	17 (≈ 6.14 µg/mL)	–	–	–
O=[N+]([O-])c1cn2c(n1)OC[C@@H](OCc1nnn(-c3ccc(OC(F)(F)F)cc3)n1)C2	–	> 128	0.035 (≈ 0.015 µg/mL)	1.3 (≈ 0.555 µg/mL)	81	–	–
O=[N+]([O-])c1cn2c(n1)OC[C@@H](OCc1cnn(-c3ccc(OC(F)(F)F)cc3)n1)C2	–	> 128	0.03 (≈ 0.0128 µg/mL)	1.6 (≈ 0.682 µg/mL)	–	–	–
O=[N+]([O-])c1cn2c(n1)OC[C@@H](OCc1cnn(-c3ccc(C(F)(F)F)cc3)c1)C2	4.9 (≈ 12 µM)	> 128	0.54 (≈ 0.221 µg/mL)	2.3 (≈ 0.941 µg/mL)	–	–	–
N#Cc1ccc(-n2cc(CO[C@@H]3COc4nc([N+](=O)[O-])cn4C3)nn2)cc1	–	> 128	0.89 (≈ 0.327 µg/mL)	11 (≈ 4.04 µg/mL)	–	–	–
O=[N+]([O-])c1cn2c(n1)OC[C@@H](OCc1cn(-c3ccc(F)cc3)nn1)C2	–	> 128	1.2 (≈ 0.432 µg/mL)	6.9 (≈ 2.49 µg/mL)	–	–	–
COc1ccc(-c2cc(CO[C@@H]3COc4nc([N+](=O)[O-])cn4C3)on2)cc1F	–	> 128	1.1 (≈ 0.429 µg/mL)	2 (≈ 0.781 µg/mL)	–	–	–
O=[N+]([O-])c1cn2c(n1)OC[C@@H](OCc1ccc(-c3ccc(C(F)(F)F)nc3)s1)C2	8.9 (≈ 20.9 µM)	> 128	0.05 (≈ 0.0213 µg/mL)	4.4 (≈ 1.88 µg/mL)	77	2.3	85
O=[N+]([O-])c1cn2c(n1)OC[C@@H](OCc1ccc(-c3ccc(F)cc3)s1)C2	–	> 128	0.05 (≈ 0.0188 µg/mL)	1.9 (≈ 0.713 µg/mL)	–	–	–
O=[N+]([O-])c1cn2c(n1)OC[C@@H](OCc1cnn(-c3ccc(C(F)(F)F)cc3)n1)C2	1 (≈ 2.44 µM)	> 128	0.05 (≈ 0.0205 µg/mL)	2.1 (≈ 0.862 µg/mL)	–	–	–
O=[N+]([O-])c1cn2c(n1)OC[C@@H](OCc1cnn(-c3ccc(F)cc3)n1)C2	–	> 128	0.17 (≈ 0.0613 µg/mL)	1.4 (≈ 0.504 µg/mL)	–	–	–
O=[N+]([O-])c1cn2c(n1)OC[C@@H](OCc1ccc(-c3cc(C(F)(F)F)ccn3)s1)C2	–	> 128	0.28 (≈ 0.119 µg/mL)	1.7 (≈ 0.725 µg/mL)	–	–	–
COc1ccc(-c2cc(CO[C@@H]3COc4nc([N+](=O)[O-])cn4C3)on2)cn1	–	> 128	2 (≈ 0.747 µg/mL)	4.1 (≈ 1.53 µg/mL)	–	–	–
N#Cc1ccc(-c2ccc(CO[C@@H]3COc4nc([N+](=O)[O-])cn4C3)s2)cc1	–	> 128	0.055 (≈ 0.021 µg/mL)	1.7 (≈ 0.65 µg/mL)	54	0.02	85
O=[N+]([O-])c1cn2c(n1)OC[C@@H](OCc1csc(-c3ccc(OC(F)(F)F)cc3)n1)C2	–	> 128	1.2 (≈ 0.531 µg/mL)	1.5 (≈ 0.664 µg/mL)	–	–	–
Cn1c(CO[C@@H]2COc3nc([N+](=O)[O-])cn3C2)cnc1-c1ccc(C(F)(F)F)cc1	16 (≈ 37.8 µM)	> 128	0.65 (≈ 0.275 µg/mL)	9.7 (≈ 4.11 µg/mL)	–	–	–
O=[N+]([O-])c1cn2c(n1)OC[C@@H](OCc1ccc(-c3ccc(F)nc3)s1)C2	–	> 128	0.86 (≈ 0.324 µg/mL)	2.3 (≈ 0.866 µg/mL)	–	–	–
O=[N+]([O-])c1cn2c(n1)OC[C@@H](OCc1csc(-c3ccc(F)cc3)n1)C2	–	> 128	0.35 (≈ 0.132 µg/mL)	2.8 (≈ 1.05 µg/mL)	–	–	–
O=[N+]([O-])c1cn2c(n1)OC[C@@H](OCc1cnn(-c3ccc(OC(F)(F)F)cc3)c1)C2	–	> 128	0.15 (≈ 0.0638 µg/mL)	1.8 (≈ 0.766 µg/mL)	64	1.5	87
O=[N+]([O-])c1cn2c(n1)OC[C@@H](OCc1ccn(-c3ccc(F)cc3)n1)C2	–	> 128	0.11 (≈ 0.0395 µg/mL)	7.2 (≈ 2.59 µg/mL)	–	–	–
O=[N+]([O-])c1cn2c(n1)OC[C@@H](OCc1cn(-c3ccc(OC(F)(F)F)cc3)nn1)C2	–	> 128	0.075 (≈ 0.032 µg/mL)	3.3 (≈ 1.41 µg/mL)	74	0.34	99
O=[N+]([O-])c1cn2c(n1)OC[C@@H](OCc1nnn(-c3ccc(C(F)(F)F)cc3)n1)C2	5 (≈ 12.2 µM)	> 128	0.2 (≈ 0.0823 µg/mL)	1.4 (≈ 0.576 µg/mL)	–	–	–
COc1ccc(-c2ccc(CO[C@@H]3COc4nc([N+](=O)[O-])cn4C3)s2)cc1F	–	> 128	0.06 (≈ 0.0243 µg/mL)	1 (≈ 0.405 µg/mL)	–	–	–
O=[N+]([O-])c1cn2c(n1)OC[C@@H](OCc1cc(-c3ccc(OC(F)(F)F)cc3)no1)C2	–	> 128	0.55 (≈ 0.234 µg/mL)	1.2 (≈ 0.512 µg/mL)	–	–	–
O=[N+]([O-])c1cn2c(n1)OC[C@@H](OCc1cn(-c3ccc(C(F)(F)F)cc3)nn1)C2	4.6 (≈ 11.2 µM)	> 128	0.11 (≈ 0.0451 µg/mL)	3.4 (≈ 1.4 µg/mL)	–	–	–
O=[N+]([O-])c1cn2c(n1)OC[C@@H](OCc1cc(-c3ccc(C(F)(F)F)cc3)no1)C2	0.5 (≈ 1.22 µM)	> 128	0.17 (≈ 0.0698 µg/mL)	2.6 (≈ 1.07 µg/mL)	–	–	–
N#Cc1ccc(-c2cc(CO[C@@H]3COc4nc([N+](=O)[O-])cn4C3)on2)cc1	–	> 128	1.4 (≈ 0.514 µg/mL)	6.2 (≈ 2.28 µg/mL)	–	–	–
COc1ccc(-n2cc(CO[C@@H]3COc4nc([N+](=O)[O-])cn4C3)nn2)cn1	–	> 128	1.6 (≈ 0.597 µg/mL)	12 (≈ 4.48 µg/mL)	–	–	–
